{"source": "patent US20120329117A1", "about": "“CONTROL OF CONTAMINANT MICROORGANISMS IN FERMENTATION PROCESSES WITH SYNERGISTIC FORMULATIONS CONTAINING STABILIZED CHLORINE DIOXIDE AND PEROXIDE COMPOUND” (E.I. DU PONT DE NEMOURS AND COMPANY, priority 2010, published 2012)", "system": "L. brevis", "assay": "Reduction of lactic acid bacteria in inoculated corn mash (plate count on MRS agar)", "assay_type": "cell-based, Lactobacillus brevis", "settings": "corn mash inoculated with L. brevis", "procedure": "In this example, corn mash was obtained from a commercial ethanol plant immediately after the liquefaction step. The mash was cooled to room temperature and then inoculated with L. brevis cultures prepared as was described in Example 1. 50 ml portions of the inoculated corn mash were treated with SCD, HP and a combination of both as follows:\nFollowing treatment, the samples were incubated for 2 hours in a shaking incubator. Surviving bacteria in each sample was enumerated by plating serial dilutions of each on MRS agar plates (available from Difco Laboratories, Inc., Sparks, Md.) and further incubating the plates for 48 hours at 32° C.", "data": [{"smiles": "OO", "note": "[HP, hydrogen peroxide]", "values": [{"measurement": "Viable cells after 2 hours", "setting": "50 ppm HP", "result": 7.48, "unit": "Log CFU/g"}, {"measurement": "Viable cells after 2 hours", "setting": "100 ppm HP", "result": 5.97, "unit": "Log CFU/g"}]}]}
